Bounds are passed on as bounds.

This assay has as its system ornithine decarboxylase (ODC). Kind of assay: ODC assay: inhibition of TPA induction of ornithine decarboxylase (retinoid-like activity). The class given is biochemical. The settings on record: concentration of the test compound which causes 80% inhibition in the ODC assay (TPA-induced ODC). An excerpt: The retinoic acid-like activity of these compounds is confirmed through the classic measure of retinoic acid activity involving the effects of retinoic acid on ornithine decarboxylase. The original work on the correlation between retinoic acid and decrease in cell proliferation was done by Verma & Boutwell, Cancer Research, 1977, 37,2196-2201. That reference discloses that ornithine decarboxylase (ODC) activity increased precedent to polyamine biosynthesis. It has been established elsewhere that increases in polyamine synthesis can be correlated or associated with cellular proliferation. Thus, if ODC activity could be inhibited, cell hyperproliferation could be modulated. Although all cases for ODC activity increases are unknown, it is known that 12-0-tetradecanoylphorbol-13-acetate (TPA) induces ODC activity. Retinoic acid inhibits this induction of ODC activity by TPA. […] Activity of exemplary compounds of the present invention in the above-described ODC assay is disclosed in Table 2 which provides the IC80 concentration for the respective exemplary compound. ("IC80 " is that concentration of the test compound which causes 80% inhibition in the ODC assay. By analogy, "IC60, for example, is that concentration of the test compound which causes 60% inhibition in the ODC assay.)
Turning to `CCOC(=O)c1ccc(C#Cc2ccc3c(c2)C(OC2CCCCC2)CCC3(C)C)cc1` (stereo not drawn) [Compound 6, Ethyl 4-[(5-cyclohexyloxy-5,6,7,8-tetrahydro-8,8-di-methyl-naphth-3-yl)ethynyl]benzoate], the IC80 conc was found to be 3.83 nmols.
Take `CCOC(=O)CC1(O)CCC(C)(C)c2ccc(C#Cc3ccc(C(=O)OCC)cc3)cc21` (stereo not drawn) [Compound 119, Ethyl 4-[(5-hydroxy-8,8-dimethyl-5-carhoethoxymethyl-5,6,7,8-tetrahydronapth-3-yl)ethynyl]benzoate]: the IC80 conc is recorded as 1.0 nmols.
For the molecule `CCOC(=O)c1ccc(C#Cc2ccc3c(c2)C(C)(C)CCC3O[Si](C)(C)C)cc1` (stereo not drawn) [Compound 111, Ethyl 4-[(5,6,7,8-tetrahydro-8,8-dimethyl-5-trimethylsiloxynaphth-2-yl)ethynyl]benzoate], the IC80 conc turned out to be 3.40 nmols.
Molecule `CC1(C)CC[C@H](O[C@H]2CCCCO2)c2ccc(C#Cc3ccc(C(=O)O)cc3)cc21` (relative stereo) [Compound 35] came in with an IC80 conc below 3 nmols.
The molecule `CC1(C)CC[C@@H](O[C@@H]2CCCCO2)c2cc(C#Cc3ccc(C(=O)O)cc3)ccc21` (relative stereo) [Compound 33] displayed an IC80 conc of 0.08 nmols.
As to `CC1(C)CCC(O)c2cc(C#Cc3ccc(C(=O)O)cc3)ccc21` (stereo not drawn) [Compound 41, 4-[(5,6,7,8-tetrahydro-5-hydroxy-8,8-dimethylnaphth-3-yl)ethynyl]benzoic acid], the IC80 conc worked out at 9.30 nmols.
Take `CCOC(=O)c1ccc(C#Cc2ccc3c(c2)[C@H](O[C@H]2CCCCO2)CCC3(C)C)cc1` (relative stereo) [Compound 16, Ethyl 4-[[5,6,7,8-tetrahydro-5(RS)-(2'(SR)-tetrahydropyranyloxy)-8,8-dimethylnaphth-3-yl]ethynyl]benzoate]: the IC80 conc came to 0.60 nmols.
The molecule `CCOC(=O)CC1(O)CCC(C)(C)c2cc(C#Cc3ccc(C(=O)OCC)cc3)ccc21` (stereo not drawn) [Compound 113, Ethyl 4-[(5,6,7,8-tetrahydro-5-hydroxy-8,8-dimethyl-5-carboethoxymethylnaphth-2-yl)ethynyl]benzoate] had an IC80 conc of 1.33 nmols.
`CCOC(=O)c1ccc(C#Cc2ccc3c(c2)C(C)(C)CCC3O)cc1` (stereo not drawn) [Compound 9, Ethyl 4-[(5,6,7,8-tetrahydro-5-hydroxy-8,8-dimethyl-naphth-2-yl)ethynyl]benzoate]: the IC80 conc worked out at 0.91 nmols.
The figure for `CCOC(=O)c1ccc(C#Cc2ccc3c(c2)[C@H](O[C@@H]2CCCCO2)CCC3(C)C)nc1` (relative stereo) [Compound 17, Ethyl 6-[[5,6,7,8-tetrahydro-5(RS)-(2'(RS)-tetrahydropyranyloxy)-8,8-dimethylnaphth-3-yl]ethynyl]nicotinate] is 0.35 nmols; for `CCOC(=O)c1ccc(C#Cc2ccc3c(c2)C(O)CCC3(C)C)cc1` (stereo not drawn) [Compound 10, Ethyl 4-[(5,6,7,8-tetrahydro-5-hydroxy-8,8-dimethylnaphth-3-yl)ethynyl]benzoate] it is 3.18 nmols.
On to `CCOC(=O)CC1(O)CCC(C)(C)c2cc(C#Cc3ccc(C(=O)OCC[Si](C)(C)C)cc3)ccc21` (stereo not drawn) [Compound 117, Trimethylsilylethyl 4-[(5,6,7,8-tetrahydro-5-hydroxy-8,8-dimethyl-5-carboethoxymethylnaphth-2-yl)ethynyl]benzoate], for which the IC80 conc was found to be 8.60 nmols.
For `CCOC(=O)c1ccc(C#Cc2ccc3c(c2)C(C)(C)CCC3(C#N)O[Si](C)(C)C)cc1` (stereo not drawn) [Compound 107, Ethyl 4-[(5-cyano-5,6,7,8-tetrahydro-8,8-dimethyl-5-trimethylsiloxynaphth-2-yl)ethynyl]benzoate], the IC80 conc was 1.43 nmols.
In turn, `CCOC(=O)c1ccc(C#Cc2ccc3c(c2)[C@H](O[C@@H]2CCCCO2)CCC3(C)C)cc1` (relative stereo) [Compound 15, Ethyl 4-[[5,6,7,8-tetrahydro-5 (RS)-(2'(RS)-tetrahydropyranyloxy)-8,8-dimethylnaphth-3-yl]ethynyl]benzoate] returned an IC80 conc of 0.09 nmols.
In turn, `CCOC(=O)c1ccc(C#Cc2ccc3c(c2)C(C)(C)CC[C@@H]3O[C@@H]2CCCCO2)cc1` (relative stereo) [Compound 13, Ethyl 4-[[5,6,7,8-tetrahydro-5(SR)-(2'(RS)-tetrahydropyranyloxy)-8,8-dimethylnaphth-2-yl]ethynyl]benzoate] had an IC80 conc of 7.29 nmols.
The molecule `CC1(C)CC[C@H](O[C@@H]2CCCCO2)c2ccc(C#Cc3ccc(C(=O)O)cc3)cc21` (relative stereo) [Compound 32, 4-[[5,6,7,8-tetrahydro-5(SR)-(2'(RS)-tetrahydropyranyloxy)-8,8-dimethylnaphth-2-yl]ethynyl]benzoic acid] yielded an IC80 conc of 4.20 nmols.
`CCOC(=O)c1ccc(C#Cc2ccc3c(c2)C(OCOC)CCC3(C)C)cc1` (stereo not drawn) [Compound 12] returned an IC80 conc of 0.40 nmols.
`CC1(C)CC[C@@H](O[C@H]2CCCCO2)c2cc(C#Cc3ccc(C(=O)O)cc3)ccc21` (relative stereo) [Compound 34, 4-[[5,6,7,8-tetrahydro-5(RS)-(2'(SR)-tetrahydropyranyloxy)-8,8-dimethylnaphth-3-yl]ethynyl]benzoic acid] yielded an IC80 conc of 2.30 nmols.
`COCOC1CCC(C)(C)c2ccc(C#Cc3ccc(C(=O)O)cc3)cc21` (stereo not drawn) [Compound 43] yielded an IC80 conc of 0.81 nmols.
`CCOC(=O)c1ccc(C#Cc2ccc3c(c2)C(C)(C)CC[C@@H]3O[C@H]2CCCCO2)cc1` (relative stereo) [Compound 14] showed an IC80 conc of 2.80 nmols.
Take `CCOC(=O)c1ccc(C#Cc2ccc3c(c2)C(C)(C)CCC3SC(C)=O)cc1` (stereo not drawn) [Compound 143, Ethyl 4-[(5,6,7,8-tetrahydro-8,8-dimethyl-5-thioacetylnaphth-2-yl)ethynyl]benzoate]: the IC80 conc stood at 0.15 nmols.
The figure for `CCOC(=O)c1ccc(C#Cc2ccc3c(c2)[C@H](O[C@H]2CCCCO2)CCC3(C)C)nc1` (relative stereo) [Compound 18] is 2.20 nmols.
In the case of `CC1(C)CCC(O)c2ccc(C#Cc3ccc(C(=O)O)cc3)cc21` (stereo not drawn) [Compound 42, 4-[(5,6,7,8-tetrahydro-5-hydroxy-8,8-dimethylnaphth-2-yl)ethynyl]benzoic acid], the IC80 conc is given as 0.66 nmols.
With `CC1(C)CC[C@@H](O[C@@H]2CCCCO2)c2cc(C#Cc3ccc(C(=O)O)cn3)ccc21` (relative stereo) [Compound 36], the IC80 conc was 18.70 nmols.

For the origin of these results see US5654469A, “Acetylenes disubstituted with a 5 substituted tetrahydronaphthyl group and with an aryl or heteroaryl groups having retinoid-like biological activity” (Allergan, priority 1996, dated 1997).
